≈ marks a conversion by molar mass, not a printed value. Where “and” joins values, the source holds several entries; their conditions need not be identical. Equal entries are not always repeated. Where two headings read alike, the source gives them in different places. Values belong to the compound of their own block, whether it stands above or below them.
Key:
MCF-7 cells [1] = assay: Cell cycle analysis by flow cytometry; format: cell-based, human; conditions: MCF-7, 48 h incubation
MCF-7 cells [2] = assay: Annexin V-FITC/PI apoptosis analysis; format: cell-based, human; conditions: MCF-7, 48 h
MCF-7 cells [3] = assay: Wound healing (scratch) assay; format: cell-based, human
E. coli ATCC25915 = assay: MIC, two-fold serial dilution, E. coli; format: cell-based; conditions: Escherichia coli
S. aureus ATCC25923 = assay: MIC, two-fold serial dilution, S. aureus; format: cell-based, Staphylococcus aureus; conditions: for MIC: Staphylococcus aureus, ATCC25923
E. faecalis ATCC29212 [4] = assay: MIC, two-fold serial dilution, E. faecalis; format: cell-based, Enterococcus faecalis; conditions: Enterococcus faecalis, ATCC29212
P. aeruginosa ATCC10145 [5] = assay: MIC, two-fold serial dilution, P. aeruginosa; format: cell-based; conditions: Pseudomonas aeruginosa
mutant EGFRL858R [6] = molecular target: T1, mutant EGFRL858R (Homo sapiens, UniProt P00533, L858R); conditions: for Fold-Change L858R/WT: potency relative to wild-type EGFR
EGFRT790M [7] = molecular target: T2, EGFRT790M (Homo sapiens, UniProt P00533, T790M)
in vitro = conditions: human, WI-38 normal lung fibroblast cells
mutant EGFRL858R [8] = molecular target: T1, mutant EGFRL858R; assay: biochemical
EGFRT790M [9] = molecular target: T2, EGFRT790M; assay: biochemical
[10] = test system: cervical carcinoma (HeLa); assay: MTT cytotoxicity assay, HeLa; conditions: for SI HeLa: IC50 WI-38 / IC50 HeLa; for IC50: read-out: IC50 HeLa, MTT, mean ± SD of three measurements
breast carcinoma (MCF-7) = assay: MTT cytotoxicity assay, MCF-7; conditions: for SI MCF-7: IC50 WI-38 / IC50 MCF-7; for IC50: read-out: IC50 MCF-7, MTT, mean ± SD of three measurements
liver carcinoma (HepG-2) = assay: MTT cytotoxicity assay, HepG-2; conditions: for SI HepG-2: IC50 WI-38 / IC50 HepG-2; for IC50: read-out: IC50 HepG-2, MTT, mean ± SD of three measurements
EGFRWT = EGFRWT (Homo sapiens, UniProt P00533); assay: HTRF enzyme inhibitory assay, EGFR WT
E.coli ATCC25915 = assay: Well diffusion inhibition zone, E. coli; conditions: Escherichia coli, ATCC25915, read-out: Inhibition zone E.coli ATCC25915
E. faecalis ATCC29212 [11] = assay: Well diffusion inhibition zone, E. faecalis; conditions: Enterococcus faecalis, ATCC29212, read-out: Inhibition zone E. faecalis ATCC29212
P. aeruginosa ATCC10145 [12] = assay: Well diffusion inhibition zone, P. aeruginosa; conditions: Pseudomonas aeruginosa, ATCC10145, read-out: Inhibition zone P. aeruginosa ATCC10145
HeLa, HepG-2, and MCF-7 = assay: MTT cytotoxicity, range over the cancer cell panel; conditions: read-out: IC50 across HeLa, HepG-2 and MCF-7; range over all examined cancer cell lines

T2 sequence (P00533 25-1210 T790M): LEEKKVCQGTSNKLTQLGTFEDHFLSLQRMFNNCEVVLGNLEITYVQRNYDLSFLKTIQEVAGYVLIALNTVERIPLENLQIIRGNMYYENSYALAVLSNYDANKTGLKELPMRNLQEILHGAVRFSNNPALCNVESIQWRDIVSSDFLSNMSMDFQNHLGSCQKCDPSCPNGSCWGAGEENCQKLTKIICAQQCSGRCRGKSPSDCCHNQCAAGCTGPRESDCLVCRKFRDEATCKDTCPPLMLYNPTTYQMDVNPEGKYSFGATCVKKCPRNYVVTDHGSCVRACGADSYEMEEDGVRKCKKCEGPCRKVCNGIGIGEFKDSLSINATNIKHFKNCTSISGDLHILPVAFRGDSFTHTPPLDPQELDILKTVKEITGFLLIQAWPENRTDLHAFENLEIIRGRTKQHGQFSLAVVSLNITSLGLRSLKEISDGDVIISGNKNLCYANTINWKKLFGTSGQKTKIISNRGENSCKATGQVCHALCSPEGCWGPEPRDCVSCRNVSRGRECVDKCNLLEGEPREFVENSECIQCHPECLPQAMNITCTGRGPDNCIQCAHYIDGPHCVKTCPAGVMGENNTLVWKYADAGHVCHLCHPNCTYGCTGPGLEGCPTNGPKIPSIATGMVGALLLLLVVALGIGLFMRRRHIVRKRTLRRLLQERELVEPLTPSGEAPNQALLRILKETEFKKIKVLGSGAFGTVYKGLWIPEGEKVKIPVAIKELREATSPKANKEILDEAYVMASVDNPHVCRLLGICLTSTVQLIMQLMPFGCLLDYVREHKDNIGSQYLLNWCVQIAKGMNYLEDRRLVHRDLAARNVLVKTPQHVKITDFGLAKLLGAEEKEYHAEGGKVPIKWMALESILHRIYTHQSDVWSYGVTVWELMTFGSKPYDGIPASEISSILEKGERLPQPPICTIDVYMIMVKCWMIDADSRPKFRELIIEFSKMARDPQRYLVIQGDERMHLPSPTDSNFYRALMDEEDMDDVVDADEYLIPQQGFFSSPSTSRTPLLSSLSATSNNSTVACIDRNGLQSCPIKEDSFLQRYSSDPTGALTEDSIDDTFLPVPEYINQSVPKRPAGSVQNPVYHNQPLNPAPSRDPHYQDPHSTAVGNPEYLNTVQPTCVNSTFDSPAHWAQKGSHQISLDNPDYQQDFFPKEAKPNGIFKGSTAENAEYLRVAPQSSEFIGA
EGFRWT, sequence (P00533 25-1210): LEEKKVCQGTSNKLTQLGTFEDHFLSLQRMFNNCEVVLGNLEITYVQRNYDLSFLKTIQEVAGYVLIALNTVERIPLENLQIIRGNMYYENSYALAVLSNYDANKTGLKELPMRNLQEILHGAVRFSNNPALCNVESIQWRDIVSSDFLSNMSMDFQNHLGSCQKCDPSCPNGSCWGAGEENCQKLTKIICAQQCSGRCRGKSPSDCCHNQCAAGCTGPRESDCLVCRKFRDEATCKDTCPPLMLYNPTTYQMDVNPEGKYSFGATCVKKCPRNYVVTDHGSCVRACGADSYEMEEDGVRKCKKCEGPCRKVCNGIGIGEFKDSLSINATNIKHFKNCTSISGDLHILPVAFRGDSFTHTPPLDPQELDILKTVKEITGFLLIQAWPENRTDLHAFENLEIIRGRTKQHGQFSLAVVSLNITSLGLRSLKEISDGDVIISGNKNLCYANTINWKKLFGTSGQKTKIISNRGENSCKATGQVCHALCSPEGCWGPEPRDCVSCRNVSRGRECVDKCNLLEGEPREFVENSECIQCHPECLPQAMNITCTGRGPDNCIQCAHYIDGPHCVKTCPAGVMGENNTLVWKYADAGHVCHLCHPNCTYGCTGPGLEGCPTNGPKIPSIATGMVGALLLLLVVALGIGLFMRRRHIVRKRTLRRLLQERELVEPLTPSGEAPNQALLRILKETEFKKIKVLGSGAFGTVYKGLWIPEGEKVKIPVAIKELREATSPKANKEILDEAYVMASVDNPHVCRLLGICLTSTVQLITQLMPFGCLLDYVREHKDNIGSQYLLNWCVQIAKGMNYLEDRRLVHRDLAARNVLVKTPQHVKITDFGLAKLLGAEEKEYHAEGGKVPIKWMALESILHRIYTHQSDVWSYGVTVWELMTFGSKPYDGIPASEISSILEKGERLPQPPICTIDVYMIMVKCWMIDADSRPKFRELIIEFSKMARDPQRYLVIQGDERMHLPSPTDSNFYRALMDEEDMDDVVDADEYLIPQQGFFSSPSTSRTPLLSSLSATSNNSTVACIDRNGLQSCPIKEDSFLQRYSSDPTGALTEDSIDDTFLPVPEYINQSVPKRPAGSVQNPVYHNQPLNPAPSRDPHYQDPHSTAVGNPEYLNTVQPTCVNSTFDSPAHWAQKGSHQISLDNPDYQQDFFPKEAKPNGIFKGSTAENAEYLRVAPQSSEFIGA
T1 sequence (P00533 25-1210 L858R): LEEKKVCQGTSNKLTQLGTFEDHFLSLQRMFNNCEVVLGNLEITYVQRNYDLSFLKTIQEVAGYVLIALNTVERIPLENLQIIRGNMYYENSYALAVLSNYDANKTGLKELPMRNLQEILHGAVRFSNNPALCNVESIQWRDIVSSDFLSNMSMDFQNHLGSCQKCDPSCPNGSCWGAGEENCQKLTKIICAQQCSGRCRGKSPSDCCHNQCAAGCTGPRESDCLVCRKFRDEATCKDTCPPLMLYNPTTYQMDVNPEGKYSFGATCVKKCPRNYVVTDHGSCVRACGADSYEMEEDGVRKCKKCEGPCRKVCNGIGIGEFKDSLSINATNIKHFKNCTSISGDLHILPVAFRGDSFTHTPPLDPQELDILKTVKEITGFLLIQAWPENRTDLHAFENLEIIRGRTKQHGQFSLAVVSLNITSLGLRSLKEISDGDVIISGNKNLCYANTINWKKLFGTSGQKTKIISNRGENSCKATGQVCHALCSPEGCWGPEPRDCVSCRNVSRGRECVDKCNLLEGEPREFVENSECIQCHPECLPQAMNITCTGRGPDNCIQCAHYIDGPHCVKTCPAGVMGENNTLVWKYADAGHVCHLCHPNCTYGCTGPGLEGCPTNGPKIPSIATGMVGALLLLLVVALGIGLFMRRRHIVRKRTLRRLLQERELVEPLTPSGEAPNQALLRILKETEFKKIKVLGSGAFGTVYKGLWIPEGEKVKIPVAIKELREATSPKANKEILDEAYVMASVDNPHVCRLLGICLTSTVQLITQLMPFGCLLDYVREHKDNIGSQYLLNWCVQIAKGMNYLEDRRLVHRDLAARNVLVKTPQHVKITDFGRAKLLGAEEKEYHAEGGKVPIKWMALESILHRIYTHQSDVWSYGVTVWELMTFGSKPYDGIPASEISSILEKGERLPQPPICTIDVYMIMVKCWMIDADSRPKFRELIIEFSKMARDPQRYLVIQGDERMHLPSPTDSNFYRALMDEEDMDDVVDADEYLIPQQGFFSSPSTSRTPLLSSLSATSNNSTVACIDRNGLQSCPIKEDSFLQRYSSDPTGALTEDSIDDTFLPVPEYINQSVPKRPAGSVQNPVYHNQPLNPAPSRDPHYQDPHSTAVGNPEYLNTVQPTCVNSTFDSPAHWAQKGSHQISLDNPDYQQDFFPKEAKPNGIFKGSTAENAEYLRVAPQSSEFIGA

SMILES: CCOC(=O)c1c(N)nc2c(c1-c1ccc(Cl)cc1)c(=O)n(C)c(=O)n2C [Compound 1, Ethyl 7-amino-5-(4-chlorophenyl)-1,3-dimethyl-2,4-dioxo-1,2,3,4-tetrahydropyrido[2,3-d]pyrimidine-6-carboxylate]
%G0-G1 (MCF-7 cells [1]): 74.86%
%G2/M (MCF-7 cells [1]): 1.75%
%S (MCF-7 cells [1]): 22.79%
Apoptosis Early (MCF-7 cells [2]): 5.86%
Apoptosis Late (MCF-7 cells [2]): 16.62%
Apoptosis Total (MCF-7 cells [2]): 26.37%
Necrosis (MCF-7 cells [2]): 3.89%
Length of migration (MCF-7 cells [3]; MCF-7, 72 h): 0.31–0.32 mm
Migrated cells area (MCF-7 cells [3]; MCF-7, 72 h): 0.564 mm^2
Length of migration (MCF-7 cells [3]; MCF-7, 72 h, listed as U1): 0.31 mm
% Closure (wound closure) (MCF-7 cells [3]; MCF-7, after 72 h): 69.63% and 69.63 ± 2.57%
MIC (E. coli ATCC25915): 50 µg/mL (≈ 129 µM)
MIC (S. aureus ATCC25923): 100 µg/mL (≈ 257 µM)
MIC (E. faecalis ATCC29212 [4]): 100 µg/mL (≈ 257 µM)
MIC (P. aeruginosa ATCC10145 [5]): 50 µg/mL (≈ 129 µM)
%inh EGFR_L858R (mutant EGFRL858R [6]; conc 0.01): 9.88%
%inh EGFR_L858R (mutant EGFRL858R [6]; conc 0.1): 23.7%
%inh EGFR_L858R (mutant EGFRL858R [6]; conc 1): 40%
%inh EGFR_L858R (mutant EGFRL858R [6]; conc 10): 75.6%
%inh EGFR_L858R (mutant EGFRL858R [6]; conc 100): 93.7%
Fold-Change L858R/WT (mutant EGFRL858R [6]): 12 × and 12.44×
%inh EGFR_T790M (EGFRT790M [7]; conc 0.01): 22.1%
%inh EGFR_T790M (EGFRT790M [7]; conc 0.1): 51.1%
%inh EGFR_T790M (EGFRT790M [7]; conc 1): 66.5%
%inh EGFR_T790M (EGFRT790M [7]; conc 10): 82.2%
%inh EGFR_T790M (EGFRT790M [7]; conc 100): 96.1%
IC50 at 48 h (in vitro): 81.7 ± 4.1 µM
IC50 (mutant EGFRL858R [8]): 1160 ± 36 nM
IC50 (EGFRT790M [9]): 174 ± 6 nM
SI HeLa [10]: 12.98
IC50 [10]: 6.29 ± 0.5 µM
SI MCF-7 (breast carcinoma (MCF-7)): 20.51
IC50 (breast carcinoma (MCF-7)): 3.98 ± 0.2 µM
SI HepG-2 (liver carcinoma (HepG-2)): 13.83
IC50 (liver carcinoma (HepG-2)): 5.9 ± 0.3 µM
IC50 (EGFRWT): 93 ± 3 nM
%inh EGFR WT (EGFRWT; conc 0.01): 29.6%
%inh EGFR WT (EGFRWT; conc 0.1): 51%
%inh EGFR WT (EGFRWT; conc 1): 74.5%
%inh EGFR WT (EGFRWT; conc 10): 85.3%
%inh EGFR WT (EGFRWT; conc 100): 96.1%
zone of inhibition at 100 µg/mL (E.coli ATCC25915): 9.5 ± 0.12 mm
zone of inhibition at 100 µg/mL (E. faecalis ATCC29212 [11]): 2 ± 0.05 mm
zone of inhibition at 100 µg/mL (P. aeruginosa ATCC10145 [12]): 10.5 ± 0.05 mm
IC50 (HeLa, HepG-2, and MCF-7): 3.98 to 6.29 µM

SMILES: Cn1c(=O)c2c(-c3ccc(Cl)cc3)c(C(=O)NN)c(N)nc2n(C)c1=O [Compound 2, 7-Amino-5-(4-chlorophenyl)-1,3-dimethyl-2,4-dioxo-1,2,3,4-tetrahydropyrido[2,3-d]pyrimidine 6-carbohydrazide]
%inh EGFR_L858R (mutant EGFRL858R [6]; conc 0.01): 6.07%
%inh EGFR_L858R (mutant EGFRL858R [6]; conc 0.1): 19%
%inh EGFR_L858R (mutant EGFRL858R [6]; conc 1): 43.5%
%inh EGFR_L858R (mutant EGFRL858R [6]; conc 10): 68.3%
%inh EGFR_L858R (mutant EGFRL858R [6]; conc 100): 90.7%
Fold-Change L858R/WT (mutant EGFRL858R [6]): 7.5 × and 7.56×
Fold-Change T790M/WT (EGFRT790M [7]; potency relative to wild-type EGFR): 4.03×
IC50 at 48 h (in vitro): 64.1 ± 3.5 µM
IC50 (mutant EGFRL858R [8]): 1600 ± 50 nM
IC50 (EGFRT790M [9]): 854 ± 27 nM
SI HeLa [10]: 8.6
IC50 [10]: 7.54 ± 0.7 µM
SI MCF-7 (breast carcinoma (MCF-7)): 7.44
IC50 (breast carcinoma (MCF-7)): 8.61 ± 0.6 µM
SI HepG-2 (liver carcinoma (HepG-2)): 4.95
IC50 (liver carcinoma (HepG-2)): 12.9 ± 1 µM
IC50 (EGFRWT): 212 ± 7 nM
%inh EGFR WT (EGFRWT; conc 0.01): 24.6%
%inh EGFR WT (EGFRWT; conc 0.1): 42.5%
%inh EGFR WT (EGFRWT; conc 1): 67.1%
%inh EGFR WT (EGFRWT; conc 10): 81.4%
%inh EGFR WT (EGFRWT; conc 100): 94.6%
IC50 (HeLa, HepG-2, and MCF-7): 7.54 to 12.9 µM

MIC (E. coli ATCC25915): 50 µg/mL (≈ 111 µM)
MIC S. aureus ATCC25923 (S. aureus ATCC25923): >100 µg/mL
MIC (S. aureus ATCC25923): > 100 µg/mL
MIC (E. faecalis ATCC29212 [4]): 100 µg/mL (≈ 222 µM)
MIC (P. aeruginosa ATCC10145 [5]): 50 µg/mL (≈ 111 µM)
%inh EGFR_T790M (EGFRT790M [7]; conc 0.01): 6.2%
%inh EGFR_T790M (EGFRT790M [7]; conc 0.1): 29.8%
%inh EGFR_T790M (EGFRT790M [7]; conc 1): 52.9%
%inh EGFR_T790M (EGFRT790M [7]; conc 10): 75.1%
%inh EGFR_T790M (EGFRT790M [7]; conc 100): 93.5%
IC50 at 48 h (in vitro): 18.2 ± 1.4 µM
SMILES: Cn1c(=O)c2c(-c3ccc(Cl)cc3)c(C3=NN=C4N=CN=C(N)C43)c(N)nc2n(C)c1=O (stereo not shown) [Compound 12, 7-Amino-6-(4-amino-3aH-pyrazolo [3,4-d]pyrimidin-3-yl)-5-(4-chlorophenyl)-1,3-dimethylpyrido[2,3-d]pyrimidine-2,4(1H,3H)-dione]
SI HeLa [10]: 0.41
IC50 [10]: 44.2 ± 2.6 µM
SI MCF-7 (breast carcinoma (MCF-7)): 0.31
IC50 (breast carcinoma (MCF-7)): 58.8 ± 3.3 µM
SI HepG-2 (liver carcinoma (HepG-2)): 0.33
IC50 (liver carcinoma (HepG-2)): 54.3 ± 3.2 µM
zone of inhibition at 100 µg/mL (E.coli ATCC25915): 10.4 ± 0.08 mm
zone of inhibition at 100 µg/mL (E. faecalis ATCC29212 [11]): 2 ± 0.05 mm
zone of inhibition at 100 µg/mL (P. aeruginosa ATCC10145 [12]): 10.5 mm

— publication PMC12567244, “Innovative Amino-Functionalization of Pyrido[2,3-d]pyrimidine Scaffolds for Broad Therapeutic Applications Supported by Computational Analyses” (Pharmaceuticals, 2025)
